One data set relates to Influenza A virus. The data set can be described thus: Antiviral activity against Influenza A virus (A/Puerto Rico/8/34(H1N1)) infected in MDCK cells assessed as inhibition of viral replication after 48 hrs by hemagglutination test. Format: functional. Conditions: A/Puerto Rico/8/1934(H1N1), read-out: ED50 (the source's name).
The subject of data set [1] is Influenza A virus (A/Puerto Rico/8/34(H1N1)). Nature of the data set: Selectivity index, ratio of CTD50 for MDCK cells to ED50 for Influenza A virus (A/Puerto Rico/8/34(H1N1)). Conditions: dog, read-out: Selectivity Index. It is filed as toxicity.
Data set [2] can be described thus: Antiviral activity against Influenza A virus (A/California/07/09(H1N1)) infected in MDCK cells assessed as inhibition of viral replication after 48 hrs by hemagglutination test. Conditions: read-out: ED50 (the source's name). It is filed as functional, Influenza A virus (A/California/07/2009(H1N1)).
The test system of data set [3] is Influenza A virus (A/California/07/09(H1N1)). Nature of the data set: Selectivity index, ratio of CTD50 for MDCK cells to ED50 for Influenza A virus (A/California/07/09(H1N1)). Format: toxicity. Particulars: dog, read-out: Selectivity Index.
Data set [4] in a line: Cytotoxicity against MDCK cells after 48 hrs by MTT assay. Format: cell-based, Canis lupus familiaris. Conditions: dog, read-out: CTD50.

16 molecules from ChEMBL document CHEMBL3992495, “Aliphatic and alicyclic camphor imines as effective inhibitors of influenza virus H1N1” (Eur J Med Chem, 2017) can be followed below.

Where a name gives a salt, the structure may show the parent alone.

On to `CCCCCCCCCCCCCCCCCC/N=C1\C[C@H]2CC[C@]1(C)C2(C)C`, for which the EC50 with Influenza A virus is more than 744 µM; in data set [2] (Influenza A virus, MDCK, 48 h) it was 744 µM. The selectivity ratio in data set [1] was less than 1; in data set [3], more than 1. Further, the CC50 at 48 h in data set [4] is more than 744 µM.
Turning to `CCCCC/N=C1\C[C@H]2CC[C@]1(C)C2(C)C`, the EC50 with Influenza A virus was 12.2 µM; in data set [2] (Influenza A virus, MDCK, 48 h), 7.7 µM. Also, the results for the selectivity ratio in data set [1] and in data set [3] were 66 and 104, respectively. Further, the CC50 at 48 h in data set [4] is 801 µM.
The corresponding values for `CCCCCCCCCCCC/N=C1\C[C@H]2CC[C@]1(C)C2(C)C` are more than 37.6 µM, 15.7 µM, less than 2, 4 and 62.1 µM.
The corresponding values for `CCC/N=C1\C[C@H]2CC[C@]1(C)C2(C)C` are 4.1 µM, 19.7 µM, more than 632, more than 131 and more than 2590 µM.
The corresponding values for `CCCCCCCC/N=C1\C[C@H]2CC[C@]1(C)C2(C)C` are 9.9 µM, 64.6 µM, 10, 2 and 97.3 µM.
For `CCCCCCCCCC/N=C1\C[C@H]2CC[C@]1(C)C2(C)C`, the EC50 with Influenza A virus is 10.3 µM; in data set [2] (Influenza A virus, MDCK, 48 h) it was 17.2 µM. Moreover, the selectivity ratio in data set [1] worked out at 5; in data set [3], 3. Further, in data set [4], the CC50 at 48 h stood at 50.9 µM.
`CCCCCC/N=C1\C[C@H]2CC[C@]1(C)C2(C)C`: the EC50 in the data set on Influenza A virus was found to be 29.8 µM; in data set [2] (Influenza A virus, MDCK, 48 h) it was 26 µM. For the same molecule, the selectivity ratio in data set [1] was determined as 16; in data set [3], 18. For the same molecule, the CC50 at 48 h in data set [4] turned out to be 468 µM.
As for `CC1(C)[C@@H]2CC[C@@]1(C)/C(=N/C1CCCCC1)C2`, the EC50 turned out to be 15.5 µM in the data set on Influenza A virus and 55.4 µM in data set [2] (Influenza A virus, MDCK, 48 h). For the same molecule, the values for the selectivity ratio in data set [1] and in data set [3] were more than 83 and more than 23, respectively. For the same molecule, the CC50 at 48 h in data set [4] was more than 1290 µM.
Regarding `CC(N)[C@@H]1C[C@H]2CC[C@@H]1C2` (some centres undefined), the EC50 in the data set on Influenza A virus was 230 µM; in data set [2] (Influenza A virus, MDCK, 48 h), 206 to 209 µM. For the same molecule, the CC50 at 48 h in data set [4] fell in the range of 1260 to 1270 µM.
Regarding `CC1(C)[C@@H]2CC[C@@]1(C)/C(=N/C1CC1)C2`, the EC50 was determined as 738 µM in the data set on Influenza A virus and 592 µM in data set [2] (Influenza A virus, MDCK, 48 h). Further, the selectivity ratio was 2 in data set [1] and 3 in data set [3]. For the same molecule, the CC50 at 48 h in data set [4] amounted to 1660 µM.
The corresponding values for `CCCC/N=C1\C[C@H]2CC[C@]1(C)C2(C)C` are 5.8 µM, 7.7 µM, 417, 312 and 2420 µM.
With `CC1(C)[C@@H]2CC[C@@]1(C)/C(=N/CCO)C2`, the EC50 in data set [2] (Influenza A virus, MDCK, 48 h) was determined as 5 µM. In addition, the selectivity ratio in data set [3] was 500. Further, the CC50 at 48 h in data set [4] was found to be 2500 µM.
`CCCCCCC/N=C1\C[C@H]2CC[C@]1(C)C2(C)C`: the EC50 amounted to 4.8 µM in the data set with Influenza A virus and 1.4 µM in data set [2] (Influenza A virus, MDCK, 48 h). Further, the selectivity ratio in data set [1] amounted to 49; in data set [3] it was 171. Further, in data set [4], the CC50 at 48 h came out at 234 µM.
On to `NC12CC3CC(CC(C3)C1)C2` [AMANTADINE], for which the EC50 in the data set on Influenza A virus was 72.8 µM; in data set [2] (Influenza A virus, MDCK, 48 h), 64.2 to 70 µM. The selectivity ratio in data set [1] and in data set [3] was 4 throughout. In data set [4], the CC50 at 48 h was 280 to 284 µM.
As for `CC12CCC(CC1=O)C2(C)C` (centres undefined) [CAMPHOR], the EC50 in the data set on Influenza A virus was determined as 1450 µM; in data set [2] it was 1640 µM. For the same molecule, the selectivity ratio in data set [1] and in data set [3] was 2 throughout.
With `CC(N)C12CC3CC(CC(C3)C1)C2` (centres undefined) [RIMANTADINE HYDROCHLORIDE], the EC50 in the data set on Influenza A virus was determined as 83.8 µM; in data set [2] (Influenza A virus, MDCK, 48 h) it was 67 µM. Further, the selectivity ratio is 4 in data set [1] and 5 in data set [3].
